Results on eight molecules are retold here after ChEMBL document CHEMBL4270621, “Discovery of long-chain salicylketoxime derivatives as monoacylglycerol lipase (MAGL) inhibitors” (Eur J Med Chem, 2018).

Assay [1] addresses T1, Monoglyceride lipase (Homo sapiens, UniProt Q99685).
T1 sequence (Q99685 whole entry): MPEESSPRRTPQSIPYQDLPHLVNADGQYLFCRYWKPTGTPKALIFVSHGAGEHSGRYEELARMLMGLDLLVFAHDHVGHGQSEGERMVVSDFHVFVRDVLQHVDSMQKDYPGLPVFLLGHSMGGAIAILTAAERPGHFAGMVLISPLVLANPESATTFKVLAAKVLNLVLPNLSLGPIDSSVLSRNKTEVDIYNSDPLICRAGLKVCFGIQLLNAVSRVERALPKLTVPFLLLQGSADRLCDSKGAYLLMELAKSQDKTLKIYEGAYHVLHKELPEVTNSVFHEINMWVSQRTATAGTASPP
As to the kind of experiment: Inhibition of recombinant human C-terminal His-tagged MAGL expressed in Escherichia coli using 4-NPA as substrate measured after 30 mins.

The target of assay [2] is Estrogen receptor beta (Homo sapiens) (UniProt Q92731). As to the kind of experiment: Displacement of [3H]-estradiol from full length human ERbeta expressed in insect cells after 18 to 24 hrs by radiometric method relative to estradiol. On the technique in general: In a radioligand displacement assay an active substance lowers the binding of a labelled ligand.
Assay [3] has as its target T2, Estrogen receptor (Homo sapiens) (UniProt P03372).
T2 sequence (whole entry): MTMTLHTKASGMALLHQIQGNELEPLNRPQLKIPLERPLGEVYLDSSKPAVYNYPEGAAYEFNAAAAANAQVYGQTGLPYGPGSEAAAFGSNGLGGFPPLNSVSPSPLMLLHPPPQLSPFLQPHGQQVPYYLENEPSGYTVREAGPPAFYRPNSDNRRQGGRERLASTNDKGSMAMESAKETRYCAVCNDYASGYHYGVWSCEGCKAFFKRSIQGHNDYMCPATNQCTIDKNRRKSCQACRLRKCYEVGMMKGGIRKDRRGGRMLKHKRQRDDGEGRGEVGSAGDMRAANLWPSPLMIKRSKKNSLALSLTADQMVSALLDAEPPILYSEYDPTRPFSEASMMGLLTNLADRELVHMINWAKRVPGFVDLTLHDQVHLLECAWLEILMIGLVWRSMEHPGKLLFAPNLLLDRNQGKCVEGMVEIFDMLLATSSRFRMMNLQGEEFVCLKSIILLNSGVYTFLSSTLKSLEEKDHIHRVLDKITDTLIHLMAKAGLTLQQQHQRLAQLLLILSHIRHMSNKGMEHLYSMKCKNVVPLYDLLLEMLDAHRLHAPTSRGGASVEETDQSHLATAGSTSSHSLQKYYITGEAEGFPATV
Put plainly: Displacement of [3H]-estradiol from full length human untagged ERalpha expressed in Sf insect cells after 18 to 24 hrs by radiometric method relative to estradiol.

The target of assay [4] is T3, Cannabinoid receptor 1 (Homo sapiens, UniProt P21554). Put plainly: Displacement of [3H]CP55940 from recombinant human CB1 expressed in crude membranes at 10 uM after 90 mins by liquid scintillation counting method relative to control. It counts as cell membranes.
In a further assay the test system is HCT-116. As to the kind of experiment: Antiproliferative activity against human HCT116 cells measured after 96 hrs. It counts as functional, cell-based. The settings on record: HCT-116, 96 h.
The target in assay [5] is T4, Monoglyceride lipase (Homo sapiens) (UniProt Q99685).
T4 sequence (whole entry): T1 sequence (Q99685 whole entry)
Put plainly: Reversible inhibition of recombinant human C-terminal His-tagged MAGL expressed in Escherichia coli at 20 uM using 4-NPA as substrate pretreated for 60 mins followed by 40 times compound dilution for 15 mins and subsequent substrate addition measured after 30 mins.

A further assay has as its system Caov-3 cell line. Put plainly: Antiproliferative activity against human Caov3 cells measured after 96 hrs. Conditions: Caov-3, 96 h. It counts as functional, cell-based.
The subject of the next assay is OVCAR-3. Put plainly: Antiproliferative activity against human OVCAR3 cells measured after 96 hrs. Conditions: OVCAR-3, 96 h. It counts as functional, cell-based.
Assay [6] addresses T4, Monoglyceride lipase (Homo sapiens). Put plainly: Reversible inhibition of recombinant human C-terminal His-tagged MAGL expressed in Escherichia coli using 4-NPA as substrate pretreated up to 60 mins followed by substrate addition and measured after 30 mins.
The target of assay [7] is T1, Monoglyceride lipase. Put plainly: Inhibition of recombinant human C-terminal His-tagged MAGL expressed in Escherichia coli using 4-NPA as substrate pretreated with substrate 15 mins followed by enzyme addition measured after 30 mins.
Assay [8] has as its target T5, Fatty-acid amide hydrolase 1 (Homo sapiens, UniProt O00519).
T5 sequence (O00519 whole entry): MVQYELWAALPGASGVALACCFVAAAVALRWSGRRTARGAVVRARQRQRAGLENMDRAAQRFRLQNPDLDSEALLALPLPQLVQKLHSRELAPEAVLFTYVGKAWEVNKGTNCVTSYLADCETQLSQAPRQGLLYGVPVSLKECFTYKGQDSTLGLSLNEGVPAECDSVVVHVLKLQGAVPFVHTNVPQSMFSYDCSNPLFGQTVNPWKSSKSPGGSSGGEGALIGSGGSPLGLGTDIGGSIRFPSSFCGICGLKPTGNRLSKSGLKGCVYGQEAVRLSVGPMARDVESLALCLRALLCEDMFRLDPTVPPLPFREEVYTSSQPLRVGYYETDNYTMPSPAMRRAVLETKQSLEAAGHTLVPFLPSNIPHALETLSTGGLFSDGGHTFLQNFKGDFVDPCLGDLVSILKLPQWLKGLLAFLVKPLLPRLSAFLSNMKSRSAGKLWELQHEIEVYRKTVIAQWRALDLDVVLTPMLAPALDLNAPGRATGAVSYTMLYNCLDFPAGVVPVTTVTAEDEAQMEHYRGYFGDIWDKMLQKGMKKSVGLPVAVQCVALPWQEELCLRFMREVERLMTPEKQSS
As to the kind of experiment: Inhibition of FAAH in human U937 cells using [ethanolamine-1-3H]AEA as substrate pretreated for 30 mins followed by substrate addition and measured after 15 mins by liquid scintillation counting method. It is filed as cell-based.

A further assay relates to SK-OV-3. Put plainly: Antiproliferative activity against human SKOV3 cells measured after 96 hrs. The settings on record: SK-OV-3, 96 h. It counts as functional, cell-based.
For assay [9], the target named is T3, Cannabinoid receptor 1. As to the kind of experiment: Displacement of [3H]CP55940 from recombinant human CB1 expressed crude membranes after 90 mins by liquid scintillation counting method.
Another assay concerns MDA-MB-231. As to the kind of experiment: Antiproliferative activity against human MDA-MB-231 cells measured after 96 hrs. It is filed as functional, cell-based. Conditions: MDA-MB-231, 96 h.
In assay [10] the target is T1, Monoglyceride lipase. Put plainly: Inhibition of recombinant human C-terminal His-tagged MAGL expressed in Escherichia coli using 4-NPA as substrate pretreated with substrate 15 mins in presence of DTT followed by enzyme addition measured after 30 mins.

The structures appear in SMILES notation. Active and inactive are the calls of the source. No cut-off for these calls is given here.

For orientation: IC50 means the concentration that gives 50% inhibition. Broadly, the inhibition is how much of the control response was suppressed.

T3 sequence (P21554 whole entry): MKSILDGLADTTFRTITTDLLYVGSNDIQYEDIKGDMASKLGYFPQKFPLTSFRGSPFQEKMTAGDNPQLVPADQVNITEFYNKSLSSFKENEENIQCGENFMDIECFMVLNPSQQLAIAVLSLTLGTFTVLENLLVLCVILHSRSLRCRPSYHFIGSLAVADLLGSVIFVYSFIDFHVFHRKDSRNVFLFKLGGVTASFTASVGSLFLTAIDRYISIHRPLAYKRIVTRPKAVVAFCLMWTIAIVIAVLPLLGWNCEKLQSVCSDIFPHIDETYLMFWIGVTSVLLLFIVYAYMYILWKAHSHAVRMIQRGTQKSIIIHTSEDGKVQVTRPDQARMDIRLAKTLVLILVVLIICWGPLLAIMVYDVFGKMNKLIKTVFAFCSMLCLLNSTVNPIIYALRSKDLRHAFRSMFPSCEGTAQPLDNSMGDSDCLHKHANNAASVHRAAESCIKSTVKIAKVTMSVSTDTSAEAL
Estrogen receptor beta (Homo sapiens), sequence (Q92731 whole entry): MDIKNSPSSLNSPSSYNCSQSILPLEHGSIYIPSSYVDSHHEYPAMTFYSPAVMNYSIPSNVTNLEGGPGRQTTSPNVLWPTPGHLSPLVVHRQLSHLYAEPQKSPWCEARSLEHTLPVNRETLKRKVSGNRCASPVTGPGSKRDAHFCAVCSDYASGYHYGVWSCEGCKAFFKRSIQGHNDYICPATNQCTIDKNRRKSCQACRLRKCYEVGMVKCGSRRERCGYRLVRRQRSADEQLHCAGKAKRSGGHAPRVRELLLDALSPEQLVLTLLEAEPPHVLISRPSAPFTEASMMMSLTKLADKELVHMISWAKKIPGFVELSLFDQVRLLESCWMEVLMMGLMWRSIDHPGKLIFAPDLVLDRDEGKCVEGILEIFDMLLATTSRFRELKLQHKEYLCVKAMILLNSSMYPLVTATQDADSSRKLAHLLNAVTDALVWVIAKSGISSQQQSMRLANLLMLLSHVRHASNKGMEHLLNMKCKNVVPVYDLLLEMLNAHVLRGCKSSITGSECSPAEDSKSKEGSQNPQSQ

For the molecule `CCCC/C(=N\O)c1cc(-c2ccc(OC)cc2)ccc1O`, the concentration for half-maximal inhibition (IC50) at Monoglyceride lipase [1] turned out to be 119 µM.

In the case of `C/C(=N\O)c1cc(-c2ccc(O)c(F)c2)ccc1O`, the IC50 on Monoglyceride lipase [1] was found to be 34 µM.

Regarding `CC/C(=N\O)c1cc(-c2ccc(O)c(F)c2)ccc1O`, the concentration for half-maximal inhibition (IC50) at Monoglyceride lipase [1] is 11 µM. The RBA in assay [2] was 37%; in assay [3], 2.1%.

As to `CCCCCCCCCCCCC/C(=N\O)c1cc(-c2ccc(O)c(F)c2)ccc1O`, the IC50 came to 0.68 µM at Monoglyceride lipase [1]; 11 µM in the assay with HCT-116; 14 µM in the assay on Caov-3 cell line; 28 µM in the assay with OVCAR-3; 0.68 µM at Monoglyceride lipase [7]; 8.7 µM in assay [8]. Besides, the IC50 with SK-OV-3 came to 26 µM; on Cannabinoid receptor 1 [9] it was 4.1 µM; in the assay on MDA-MB-231, 73 µM; at Monoglyceride lipase [10], 0.7 µM. Besides, the inhibition on Cannabinoid receptor 1 [4] was 5%. Besides, the inhibition entry in [5] and in assay [6] was “Active” each time.

For `CCCCCCCCCCCCCCC/C(=N\O)c1cc(-c2ccc(OC)c(F)c2)ccc1O`, the IC50 at Monoglyceride lipase [1] is greater than 200 µM.

For the molecule `CCCCCCCCCCC/C(=N\O)c1cc(-c2ccc(O)c(F)c2)ccc1O`, the half-inhibitory concentration (IC50) on Monoglyceride lipase [1] was found to be 0.71 µM; in the assay with HCT-116 it was 7.6 µM; in the assay with Caov-3 cell line, 11 µM; with OVCAR-3, 40 µM; in assay [8] it was 4.1 µM; with SK-OV-3, 20 µM. Moreover, the results for the IC50 on Cannabinoid receptor 1 [9] and in the assay with MDA-MB-231 were 2.6 µM and 45 µM, respectively. For the same molecule, the inhibition on Cannabinoid receptor 1 [4] turned out to be 5%.

For the molecule `COc1nn(-c2ccc(NC(=O)OCc3ccccc3)c(C)c2)c(=O)o1`, the half-inhibitory concentration (IC50) in the assay with HCT-116 is 89 µM; in the assay with Caov-3 cell line, 92 µM; in the assay with OVCAR-3, 50 µM; with SK-OV-3, 34 µM; in the assay on MDA-MB-231, 42 µM.

On to `CCCCCCCCCCCCC/C(=N\O)c1cc(-c2ccc(OC)c(F)c2)ccc1O`, for which the concentration for half-maximal inhibition (IC50) on Monoglyceride lipase [1] is greater than 200 µM.
